Assay results taken from patent publication US20250092065A1, “2-(INDAZOL-5-YL)-6-(PIPERIDIN-4-YL)-1,7-NAPHTHYRIDINE DERIVATIVES AND RELATED COMPOUNDS AS MODULATORS FOR SPLICING NUCLEIC ACIDS AND FOR THE TREATMENT OF PROLIFERATIVE DISEASES” (REMIX THERAPEUTICS INC., priority 2022, published 2025).
pIC50: −log10 of the molar value. Like-named read-outs stand apart in the source and are kept apart here.

Columns and labels:
K562 cells = experiment: Cell Titer Glo 2.0 cell viability (toxicity) assay, K562; details: 500 cells/well, 72 hours
HTT mRNA = experiment: RT-qPCR splicing assay, HTT mRNA canonical (CJ) and alternative (AJ) junction; type: cell-based, human; details: Homo sapiens
Procedure, shortened: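 Splice switching quantified in compound-treated A673/K562 cells after 24 h exposure (top dose 10 uM, 3-fold steps, ≤0.25% DMSO), using CJ and AJ qPCR assays run at least in duplicate. RQ derived by 2^(−ΔΔCt), then percentage response.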

Target C = experiment: HiBiT protein abundance assay, Target C (K562 HiBiT knock-in); type: cell-based, human; details: HiBiT knock-in K562 cells, 24 hours, top dose 10 μM
Procedure, shortened: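 K562 HiBiT knock-in cells (10000/well) were treated 24 h at 37° C with a 10-point 3-fold dilution series (top 10 μM final, ≤0.25% DMSO). HiBiT luminescence was read after lytic LgBiT detection. Percent response used unmodified K562 and DMSO-treated knock-in controls, and IC50 came from a four-parameter fit at 50% of untreated.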

MYB = experiment: HiBiT protein abundance assay, MYB (K562 HiBiT knock-in); type: cell-based, human; details: HiBiT knock-in K562 cells, 24 hours, top dose 10 μM
Procedure, shortened: (§1)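 Luminescence readout: Nano-Glo HiBiT lytic detection after 24 h compound exposure of K562 HiBiT knock-in cells, 10000 cells/well. Dosing 10-pt, 3-fold, top 10 μM final. % response vs untreated parental K562 and DMSO controls; 4PL fit, IC50 = concentration giving 50% protein abundance.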

HTT = experiment: HiBiT protein abundance assay, HTT (K562 HiBiT knock-in); type: cell-based, human; details: HiBiT knock-in K562 cells, 24 hours, top dose 10 μM
Procedure, shortened: as §1

CCN(CC)C1CCN(c2ccc3nc(-c4cc5cn(C)nc5c(F)c4O)ncc3c2)CC1 [Compound 756, 5-{6-[4-(diethylamino)piperidin-1-yl]quinazolin-2-yl}-7-fluoro-2-methylindazol-6-ol]
Effect of Exemplary Compounds on Cell Viability, K562 (K562 cells): B (B represents 100-1000 nM) | AC50 (HTT mRNA; HTT alternative junction mRNA, RT-qPCR, read-out: HTT AJ (increase in AJ mRNA, AC50)): 100 to 1000 nM | pIC50 (HTT mRNA; HTT canonical junction mRNA, RT-qPCR, read-out: HTT CJ (decrease in CJ mRNA levels, IC50)): 6.00 to 7.00 | pIC50 (HTT mRNA; canonical junction qPCR panel, Table 4, read-out: HTT IC50 (decrease in CJ mRNA levels)): 6.00 to 7.00 | pIC50 (Target C): 6.00 to 7.00 | pIC50 (MYB): 6.00 to 7.00 | pIC50 (HTT): 6.00 to 7.00
